Results taken from ChEMBL document CHEMBL1135798, “Structure-activity relationships of the antimalarial agent artemisinin. 6. The development of predictive in vitro potency models using CoMFA and HQSAR methodologies” (2002).

Tested on: Plasmodium falciparum
Experiment: Antimalarial activity against chloroquine-resistant, mefloquine-sensitive Plasmodium falciparum W2
Type: functional

| SMILES | Log RA |
| --- | --- |
| CCOC(=O)C[C@@H](O[C@H]1O[C@@H]2O[C@@]3(C)CC[C@H]4[C@H](C)CC[C@@H]([C@H]1C)[C@@]24OO3)c1ccccc1 | 1.07 |
| C[C@@H]1CC[C@@H]2[C@]34OO[C@](C)(CC[C@@H]13)O[C@H]4OC(=O)[C@@]21CCC1C[Si](C)(C)C (stereo partly specified) | -1.24 |
| C[C@H]1[C@@H](O)O[C@@H]2O[C@@]3(C)CC[C@H]4[C@H](C)CC[C@@H]1[C@@]24O3 | -4 |
| C[C@@H]1CC[C@H]2[C@@H](CCCc3ccccc3)C(=O)O[C@@H]3O[C@@]4(C)CC[C@@H]1[C@]32OO4 | 0.78 |
| CCOC1C[C@@H]2CC[C@@H](C)[C@@H]3CC[C@@]4(C)OO[C@@]23[C@H](O1)O4 (stereo partly specified) | 0.43 |
| C[C@@H]1CC[C@H]2CC(=O)O[C@@H]3O[C@@]4(CCc5ccccc5)CC[C@@H]1[C@@]23O4 | -4 |
| C[C@@H]1CC[C@H]2CC(=O)O[C@@H]3O[C@@]4(CCCCc5ccccc5)CC[C@@H]1[C@@]23OO4 | 0.45 |
| CO[C@@H]1O[C@@]2(C)CC[C@H]3CC(C)(C)CC[C@]31OO2 | -0.47 |
| CO[C@H]1O[C@@]2(C)CC[C@H]3CCC[C@@H](CCOC(=O)c4ccccc4)[C@]31OO2 | -0.59 |
| C[C@@H]1CC[C@H]2[C@H]3CCCO[C@H]3O[C@@H]3O[C@@]4(C)CC[C@@H]1[C@]32OO4 | 0.23 |
| C[C@@H]1CCC2[C@@H](C)C(=O)OC3OC(C)(C)OO[C@@]32C1 (stereo partly specified) | -0.15 |
| C[C@@H]1CC[C@H]2[C@@H](C)C(CC(F)F)O[C@@H]3O[C@@]4(C)CC[C@@H]1[C@]32OO4 (stereo partly specified) | 0.11 |
| C[C@]12CC[C@H]3CCCC[C@@]3(OO1)[C@H](OCc1ccccc1)O2 | -0.09 |
| CC[C@H]1CO[C@@H]2O[C@@]3(C)CC[C@H]4[C@H](C)CC[C@@H]1[C@@]24OO3 | 0.67 |
| c1ccc([C@@]23CCC[C@](c4ccccc4)(CC2)OO3)cc1 | -0.91 |
| C[C@@H]1CC[C@H]2[C@@H](CCc3ccccc3)C(=O)O[C@@H]3O[C@@]4(C)CC[C@@H]1[C@]32OO4 | 0.12 |
| C[C@@H]1CC[C@@H]2[C@]34OO[C@](C)(CC[C@@H]13)O[C@H]4OC(OCC(F)(F)F)[C@@]2(C)O (stereo partly specified) | 0.29 |
| CO[C@H]1O[C@@]2(C)CC[C@H]3CCC[C@@H](CCOCc4c(C)noc4C)[C@]31OO2 | 0.58 |
| CO[C@H]1O[C@@]2(C)CC[C@H]3CCC[C@@H](CCOS(=O)(=O)c4ccc(C)cc4)[C@]31OO2 | 0.2 |
| CCO[C@H]1O[C@@H]2O[C@@]3(C)CC[C@H]4C(C)C(F)(F)C[C@@H]([C@H]1C)[C@@]24OO3 (stereo partly specified) | 0.19 |
| CO[C@H]1O[C@]2(C)OO[C@]13[C@H](CCO)CCC[C@@H]3C[C@@H]2C | 0.23 |
| CCC[C@H]1CO[C@@H]2O[C@@]3(C)CC[C@H]4[C@H](C)CC[C@@H]1[C@@]24OO3 | 0.74 |

| SMILES | Log RA |
| --- | --- |
| CCOC1O[C@@H]2O[C@@]3(C)CC[C@H]4[C@H](C)CC[C@H]([C@@]24OO3)[C@]1(C)O (stereo partly specified) | -0.44 |
| CCCC[C@H]1C(=O)O[C@@H]2O[C@@]3(C)CC[C@H]4[C@H](C)CC[C@@H]1[C@@]24OO3 | 0.17 |
| CO[C@@H]1O[C@@]2(C)CC[C@H]3CCCC[C@]31OO2 | -1.04 |
| C[C@@H]1CC[C@H]2CC(=O)O[C@@H]3O[C@@]4(CCc5ccccc5)CC[C@@H]1[C@@]23OO4 | -2 |
| CO[C@@H]1O[C@@]2(C)CC[C@H]3CCC[C@@H](CCOC(=O)N(C)C)[C@]31OO2 | 0.33 |
| C[C@@H]1CC[C@H]2[C@@H](C)C(=O)N[C@@H]3O[C@@]4(C)CC[C@@H]1[C@]32OO4 | 0 |
| C=CCN1C(=O)[C@H](C)[C@@H]2CC[C@@H](C)[C@@H]3CC[C@@]4(C)OO[C@]32[C@H]1O4 | -0.04 |
| CO[C@H]1OC2(C)CC[C@H]3CCC[C@@H](CCOCc4ccc(F)cc4)C31OO2 (stereo partly specified) | 0.38 |
| CCO[C@H]1O[C@@H]2O[C@@]3(C)CC[C@H]4[C@H](C)CC[C@@H]([C@H]1C)[C@@]24O3 | -4 |
| CCC[C@H]1C(OCC)O[C@@H]2O[C@@]3(C)CC[C@H]4[C@H](C)CC[C@@H]1[C@@]24OO3 (stereo partly specified) | -0.04 |
| CC[C@@]12CC[C@H]3[C@H](C)CC[C@H]4CC(=O)O[C@H](O1)[C@]43O2 | -4 |
| C[C@@H]1CC[C@@H]2[C@]34OO[C@](C)(CC[C@@H]13)O[C@H]4OC(O)[C@@]21CO1 (stereo partly specified) | -0.62 |
| C[C@@H]1CC[C@H]2CC(=O)N(C)[C@@H]3O[C@@]4(C)CC[C@@H]1[C@@]23OO4 | 0.7 |
| C[C@@H]1CC[C@H]2[C@@H](CCCc3ccccc3)CO[C@@H]3O[C@@]4(C)CC[C@@H]1[C@]32OO4 | 1.4 |
| CCOC(=O)[C@H](O[C@H]1O[C@@H]2O[C@@]3(C)CC[C@H]4[C@H](C)CC[C@@H]([C@H]1C)[C@@]24OO3)c1ccccc1 | 0.87 |
| CCOC1O[C@@H]2O[C@@]3(C)CC[C@H]4[C@H](C)CC[C@@H]([C@H]1C)[C@@]24OO3 (stereo partly specified) | 0.34 |
| CO[C@H]1O[C@@]2(C)CC[C@H]3CCC[C@@H](CCOCc4cc[n+](C)cc4)[C@]31OO2 | -0.9 |
| C=C1C(=O)O[C@@H]2O[C@@]3(C)CC[C@H]4[C@H](C)CC[C@@H]1[C@@]24OO3 [ARTEMISITENE] | -0.89 |
| C[C@@H]1CC[C@@H]2[C@]34OO[C@](C)(CC[C@@H]13)O[C@H]4OC(O)[C@]21CO1 (stereo partly specified) | -0.57 |
| C[C@@H]1CC[C@H]2CC(=O)O[C@@H]3O[C@@]4(C)CC[C@@H]1[C@@]23OO4 | 0.79 |
| C[C@@H]1CC[C@@H]2[C@]34OO[C@](C)(CC[C@@H]13)O[C@H]4OC(Nc1nccs1)[C@@]2(C)Br (stereo partly specified) | 0.66 |
| COC(=O)C[C@H](C)OC1O[C@@H]2O[C@@]3(C)CC[C@H]4[C@H](C)CC[C@@H]([C@H]1C)[C@@]24OO3 (stereo partly specified) | 0.87 |

| SMILES | Log RA |
| --- | --- |
| CCCC[C@@]12CC[C@H]3[C@H](C)CC[C@H]4CCO[C@H](O1)[C@]43OO2 | 0.75 |
| C[C@@H]1CC[C@@H]2[C@@H](C)CO[C@@H]3C[C@]4(C)CC[C@@H]1[C@]23OO4 | -0.24 |
| C=CCOCC[C@@H]1CCC[C@@H]2CC[C@@]3(C)OO[C@]21[C@@H](OC)O3 | 0.4 |
| C[C@@H]1CC[C@H]2[C@](C)(O)[C@H](O)O[C@@H]3O[C@@]4(C)CC[C@@H]1[C@]32OO4 | -0.89 |
| CC1=CO[C@@H]2O[C@@]3(C)CC[C@H]4[C@H](C)CC[C@@H]1[C@@]24OO3 | 0.78 |
| C/C=C/C[C@@H]1C(=O)O[C@@H]2O[C@@]3(C)CC[C@H]4[C@H](C)CC[C@@H]1[C@@]24OO3 | -0.6 |
| CO[C@H]1O[C@]2(C)OO[C@]13[C@H](CCO)CCC[C@@H]3C[C@H]2C | -1.8 |
| C[C@@H]1CC[C@H]2CC(=O)N(Cc3ccccc3)[C@@H]3O[C@@]4(C)CC[C@@H]1[C@@]23OO4 | 0.34 |
| C[C@@H]1CC[C@H]2CC(=O)N(CCc3ccccc3)[C@@H]3O[C@@]4(C)CC[C@@H]1[C@@]23OO4 | 0.16 |
| CCOP(=O)(OCC)OCC[C@@H]1CCC[C@@H]2CC[C@@]3(C)OO[C@]21[C@@H](OC)O3 | 0.37 |
| C[C@@H]1CC[C@H]2[C@@H](CCCCc3ccccc3)C(=O)O[C@@H]3O[C@@]4(C)CC[C@@H]1[C@]32OO4 | 0.63 |
| COc1ccc([C@@]23CCC[C@](c4ccc(OC)cc4)(CC2)OO3)cc1 | -0.67 |
| CC1(C)C[C@]2(c3ccccc3)CC[C@@](c3ccccc3)(C1)OO2 | -2.17 |
| CCOC(=O)C[C@@H](O[C@H]1O[C@@H]2O[C@@]3(C)CC[C@H]4[C@H](C)CC[C@@H]([C@H]1C)[C@@]24OO3)c1ccc([N+](=O)[O-])cc1 | 0.9 |
| C=CC[C@H]1C(=O)O[C@@H]2O[C@@]3(C)CC[C@H]4[C@H](C)CC[C@@H]1[C@@]24OO3 | -0.1 |
| C[C@@]12C[C@H]3CCC[C@H]4CC(=O)O[C@H](O1)[C@@]34OO2 | -1.79 |
| CCO[C@@H]1O[C@@H]2O[C@@]3(C)CC[C@H]4[C@H](C)CC[C@@H]([C@H]1C)[C@@]24OO3 | 0.32 |
| CO[C@H]1O[C@@]2(C)CC[C@H]3CCC[C@@H](CCOCc4ccccc4)[C@]31OO2 | 0.75 |
| C[C@@H]1CCC[C@@]23CO[C@@](C)(CC[C@@H]12)OO3 | -0.32 |
| COCC[C@@H]1CCC[C@@H]2CC[C@@]3(C)OO[C@]21[C@@H](OC)O3 | -0.39 |
| C[C@@H]1CCC[C@]23OO[C@](C)(CC[C@@H]12)O[C@H]3OC(=O)Cc1ccccc1 | -0.51 |
| C[C@@H]1CC[C@H]2[C@@H](C)C(=O)N(Cc3ccccn3)[C@@H]3O[C@@]4(C)CC[C@@H]1[C@@]23O4 | -4 |
